What was measured:
Format in all cases: physicochemical
[1] = Photostationary state distribution by 1H NMR integration; details: pD 6; for PSD E→Z (photostationary state distribution): irradiation at 254 nm; for PSD Z→E (photostationary state distribution): irradiation at >420 nm
Excerpt: (§1) Photoisomerization studies were subsequently carried out in acidic medium (pH = pK a – 2) in order to assess the photoresponse of the protonated species. Under these conditions, the anticipated photoisomerization of the thermally stable E-P a–dH^+ species was investigated by UV–vis absorption spectroscopy under irradiation at 254 nm. […] It is noteworthy that the irradiation wavelength can be extended to 365 nm, yielding virtually the same observations as for 254 nm irradiation (see footnotes of Table ). Irradiation also produced clear NMR spectral changes that support the occurrence of the E→Z isomerization. In essence, the signals Hf–h of the phenyl moiety were only slightly affected, whereas those of the pyridinium and acylhydrazone fragments shifted markedly, consistent with the formation of an intramolecular hydrogen bond in the Z-P a–cH^+ species. The reverse Z→E transformation of the protonated forms P a–cH^+ was also achieved upon irradiation at λ > 420 nm, giving lower quantum yields and less favorable PSDs (Figures S145–S147, S149–154, S1).

[2] = pKa determination of E-P a-dH+ by UV-Vis titration; details: acidity constant of the cationic E form, water, 20 mM phosphate buffer, 298 K, triplicate
Excerpt: With the photovermellogens synthesized and fully characterized, their acid–base properties were next investigated by UV–vis spectroscopy to determine whether the pH-responsiveness characteristic of parent vermellogens was retained. Indeed, P a–dH·Cl reproduced the archetypical absorption changes of vermellogens (Figures c and S130–S137, SI1). , In essence, the characteristic intense π–π* absorption bands of the cations undergo a considerable bathochromic shift upon deprotonation (Table ), as also confirmed by our quantum chemical calculations (Figure S2, S2), causing a notable color change from yellow to red. This pronounced shift allowed the estimation of pK a values for E-P a–dH^+ via UV–vis absorption titrations, which, as for other vermellogens, fall within the biologically relevant pH range (Figure c, Table and Figures S130–S137, SI1). Changes in the protonation state were also easily monitored by ^1H NMR spectroscopy, with the gain in electronic density translating in a substantial shielding of resonances of the corresponding conjugate bases E/Z-P a–d (Figure a). As already observed for E-P a–dH^+, the deprotonated species were also thermally stable in the absence of light.
4. Determination of pK a values for E-P a-dH+ by UV-Vis spectroscopy.
All the experiments were recorded on a Jasco V-650 spectrometer. […] Considering the previously reported behaviour of vermellogens,5 UV-Vis spectra were initially recorded in the 4-12 pH range, to qualitatively determine in each case the presence or absence of characteristic absorption bands for the acidic-basic forms of the compounds. From the qualitative data, UV-Vis titrations were recorded in the appropriate pH range for each […]
Figure S132. UV-Vis spectra of P bH·Cl at pH 5 (black) and pH 12 (red) at 20 µM. b) Linear relationship at pH 5 between absorbance at 378 nm and concentration of P bH·Cl (ε = 42265 ± 838 L·mol -1·cm-1). c) Linear relationship at pH 12 between absorbance at 456 nm and concentration of P bH·Cl (ε = 42143 ± 1044 L·mol -1·cm-1). […]
Figure S134. UV-Vis spectra of P cH·Cl at pH 6 (black) and pH 12 (red) at 14 µM. b) Linear relationship at pH 6 between absorbance at 350 nm and concentration of P cH·Cl (ε = 49266 ± 1780 L·mol-1·cm-1). c) Linear relationship at pH 12 between absorbance at 433 nm and concentration of P cH·Cl (ε = 46382 ± 1667 L·mol -1·cm-1). […]
Figure S136. UV-Vis spectra of P dH·Cl at pH 6 (red) and pH 13 (black) at 11 µM. b) Linear relationship at pH 6 between absorbance at 411 nm and concentration of P dH·Cl (ε = 65691 ± 2966 L·mol-1·cm-1). c) Linear relationship at pH 13 between absorbance at 500 nm and concentration of P dH·Cl (ε = 69154 ± 3100 L·mol -1·cm-1). […]

[3] = Thermal Z-PH+ to E-PH+ back-isomerization kinetics
Excerpt: as §1
5.5. Z-P a-cH+→E-P a-cH+ thermal back-isomerization kinetics.
Figure S155. Absorption spectrum variation during 48h at room temperature from the PSS reached for P aH·Cl (7µM, pH 6, Red) state during 48h. E-isomer absorption spectrum in green.
Even though the kinetics has not been fully completed, it can be observed that it occurs much more slowly than photochemical processes.
To obtain an estimation of P aH·Cl Z→E thermal half-live at room temperature, the Z →E thermal reversion kinetics were monitored starting from the 254nm photostationary state at different temperatures (47, 55 and 64 °C). By tracking the absorbance changes at 420 nm, an Arrhenius analysis was performed, allowing the determination of the activation energy (EA) and the estimation of the thermal half-life at 25 °C.

C[n+]1ccc(NN=CC(=O)c2ccccc2)cc1 [P aH^+]
PSD E→Z (photostationary state distribution) [1]: 93% Z | PSD Z→E (photostationary state distribution) [1]: 67% E | pK a (E-PH^+) [2]: 8.8 ± 0.2 | k Z→E unimolecular rate constant, thermal back-isomerization ([3]; heating to 60 °C, pD 6): 4.1 10^–4 s^–1

C[n+]1ccc(NN=CC(=O)c2ccccc2)c2ccccc21 [P bH^+]
PSD E→Z (photostationary state distribution) [1]: 93% Z | PSD Z→E (photostationary state distribution) [1]: 57% E | pK a (E-PH^+) [2]: 7.2 ± 0.1 | k Z→E unimolecular rate constant, thermal back-isomerization ([3]; heating to 70 °C, pD 5): 9.8 10^–4 s^–1

O=C(C=NNc1cc[n+](-c2ccccc2)cc1)c1ccccc1 [P cH^+]
PSD E→Z (photostationary state distribution) [1]: 98% Z | PSD Z→E (photostationary state distribution) [1]: 55% E | pK a (E-PH^+) [2]: 7.8 ± 0.1 | k Z→E unimolecular rate constant, thermal back-isomerization ([3]; heating to 70 °C, pD 6): 2.4 10^–4 s^–1

C[n+]1ccc(-c2ccc(NN=CC(=O)c3ccccc3)cc2)cc1 [P dH^+]
pK a (E-PH^+) [2]: 11.2 ± 0.1

Reference: paper PMC13185115, “Photovermellogens: Minimalistic Pyridinium-Based Acylhydrazones with Photoswitchable Basicity for Operation in Aqueous Media” (The Journal of Organic Chemistry, 2026)
